Measurements as given in ChEMBL document CHEMBL3885881, “DrugMatrix”.

Organism: Rattus norvegicus
Assay: DrugMatrix - Regimen: Daily Repeat
Type: toxicity, organism-based, Sprague-Dawley
Parameters: regimen Daily Repeat, gender Male, age 6-8 weeks
Details: in vivo, po, route oral GAVAGE, vehicle .5 % CMC; for ABSOLUTE BASOPHIL / ABSOLUTE EOSINOPHIL / ABSOLUTE LYMPHOCYTE / ABSOLUTE MONOCYTE / ABSOLUTE SEGMENTED NEUTROPHIL / BASOPHIL / EOSINOPHIL / ERYTHROCYTE COUNT / HEMATOCRIT / HEMOGLOBIN / LEUKOCYTE COUNT / LYMPHOCYTE / MEAN CORPUSCULAR HEMOGLOBIN / MEAN CORPUSCULAR HEMOGLOBIN CONCENTRATION / MEAN CORPUSCULAR VOLUME / MONOCYTE / NEUTROPHIL / NUCLEATED RED BLOOD CELLS / PLATELET COUNT: tissue Blood; for ALANINE AMINOTRANSFERASE / ALBUMIN / ALKALINE PHOSPHATASE / ASPARTATE AMINOTRANSFERASE / BLOOD UREA NITROGEN / CARBON DIOXIDE / CHLORIDE / CHOLESTEROL / CREATINE PHOSPHOKINASE / CREATININE / GLUCOSE / LACTATE DEHYDROGENASE / LIPASE / PHOSPHORUS / POTASSIUM / SODIUM / TOTAL BILIRUBIN / TOTAL PROTEIN / URIC ACID: tissue Plasma
[1] = 0 mg/kg, 72 h, dose level Control, time 3 day
[2] = 0 mg/kg, 120 h, dose level Control, time 5 day
[3] = 100 mg/kg, 72 h, dose level Low, time 3 day

For NC(=O)CN1CCCC1=O, the “ABSOLUTE BASOPHIL” value [1] was 0 CELLS/uL, the “ABSOLUTE EOSINOPHIL” value [1] was 0 CELLS/uL and the “ABSOLUTE LYMPHOCYTE” value [1] was 12191.17 CELLS/uL. For the same compound, the “ABSOLUTE MONOCYTE” value [1] was 183.17 CELLS/uL, the “ABSOLUTE SEGMENTED NEUTROPHIL” value [1] was 1192.33 CELLS/uL and the BASOPHIL [1] was 0%. For the same compound, the EOSINOPHIL [1] was 0%, the “ERYTHROCYTE COUNT” value [1] was 5.51 x10E6/uL and the HEMATOCRIT [1] was 35.45%. The HEMOGLOBIN [1] was 13.82 G/DL, the “LEUKOCYTE COUNT” value [1] was 13.57 x10E3/uL and the LYMPHOCYTE [1] was 89.83%. The “MEAN CORPUSCULAR HEMOGLOBIN” value [1] was 25.1 pg, the “MEAN CORPUSCULAR HEMOGLOBIN CONCENTRATION” value [1] was 38.98 G/DL and the “MEAN CORPUSCULAR VOLUME” value [1] was 64.42 fL. The MONOCYTE [1] was 1.33%, the NEUTROPHIL [1] was 8.83% and the “NUCLEATED RED BLOOD CELLS” value [1] was 0 /100WBC. The “PLATELET COUNT” value [1] was 1118.17 x10E3/uL, the “ALANINE AMINOTRANSFERASE” value [1] was 55 u/L and the ALBUMIN [1] was 4.15 G/DL. For the same compound, the “ALKALINE PHOSPHATASE” value [1] was 449.5 u/L, the “ASPARTATE AMINOTRANSFERASE” value [1] was 112.83 u/L and the “BLOOD UREA NITROGEN” value [1] was 17.33 mg/dL. The “CARBON DIOXIDE” value [1] was 29.5 mmol/L, the CHLORIDE [1] was 101 MEQ/L and the CHOLESTEROL [1] was 70 mg/dL. The “CREATINE PHOSPHOKINASE” value [1] was 1325.83 u/L, the CREATININE [1] was 0.18 mg/dL and the GLUCOSE [1] was 171.5 mg/dL. The “LACTATE DEHYDROGENASE” value [1] was 386 u/L, the LIPASE [1] was 10 u/L and the PHOSPHORUS [1] was 11.57 mg/dL. The POTASSIUM [1] was 6.21 MEQ/L, the SODIUM [1] was 141.65 MEQ/L and the “TOTAL BILIRUBIN” value [1] was 0.15 mg/dL. The “TOTAL PROTEIN” value [1] was 5.75 G/DL, the “URIC ACID” value [1] was 1.28 mg/dL and the “ABSOLUTE BASOPHIL” value [2] was 0 CELLS/uL. For the same compound, the “ABSOLUTE EOSINOPHIL” value [2] was 138.17 CELLS/uL, the “ABSOLUTE LYMPHOCYTE” value [2] was 13283.17 CELLS/uL and the “ABSOLUTE MONOCYTE” value [2] was 303.83 CELLS/uL. For the same compound, the “ABSOLUTE SEGMENTED NEUTROPHIL” value [2] was 1308.17 CELLS/uL, the BASOPHIL [2] was 0% and the EOSINOPHIL [2] was 1%. The “ERYTHROCYTE COUNT” value [2] was 5.32 x10E6/uL, the HEMATOCRIT [2] was 33.8% and the HEMOGLOBIN [2] was 13.63 G/DL. The “LEUKOCYTE COUNT” value [2] was 15.03 x10E3/uL, the LYMPHOCYTE [2] was 88.33% and the “MEAN CORPUSCULAR HEMOGLOBIN” value [2] was 25.68 pg. For the same compound, the “MEAN CORPUSCULAR HEMOGLOBIN CONCENTRATION” value [2] was 40.35 G/DL, the “MEAN CORPUSCULAR VOLUME” value [2] was 63.67 fL and the MONOCYTE [2] was 1.83%. For the same compound, the NEUTROPHIL [2] was 8.83%, the “NUCLEATED RED BLOOD CELLS” value [2] was 0 /100WBC and the “PLATELET COUNT” value [2] was 1097.5 x10E3/uL. For the same compound, the “ALANINE AMINOTRANSFERASE” value [2] was 54.5 u/L, the ALBUMIN [2] was 4.27 G/DL and the “ALKALINE PHOSPHATASE” value [2] was 337 u/L. The “ASPARTATE AMINOTRANSFERASE” value [2] was 94.67 u/L, the “BLOOD UREA NITROGEN” value [2] was 17 mg/dL and the “CARBON DIOXIDE” value [2] was 28.33 mmol/L. The CHLORIDE [2] was 101.5 MEQ/L, the CHOLESTEROL [2] was 71.33 mg/dL and the “CREATINE PHOSPHOKINASE” value [2] was 628.17 u/L. The CREATININE [2] was 0.19 mg/dL, the GLUCOSE [2] was 177.83 mg/dL and the “LACTATE DEHYDROGENASE” value [2] was 500.5 u/L. For the same compound, the LIPASE [2] was 9.5 u/L, the PHOSPHORUS [2] was 12.3 mg/dL and the POTASSIUM [2] was 5.63 MEQ/L. The SODIUM [2] was 143.03 MEQ/L, the “TOTAL BILIRUBIN” value [2] was 0.2 mg/dL and the “TOTAL PROTEIN” value [2] was 6.02 G/DL. The “URIC ACID” value [2] was 1.5 mg/dL, the “ABSOLUTE BASOPHIL” value [3] was 0 CELLS/uL and the “ABSOLUTE EOSINOPHIL” value [3] was 0 CELLS/uL. For the same compound, the “ABSOLUTE LYMPHOCYTE” value [3] was 10885.67 CELLS/uL, the “ABSOLUTE MONOCYTE” value [3] was 0 CELLS/uL and the “ABSOLUTE SEGMENTED NEUTROPHIL” value [3] was 981 CELLS/uL. For the same compound, the BASOPHIL [3] was 0%, the EOSINOPHIL [3] was 0% and the “ERYTHROCYTE COUNT” value [3] was 5.15 x10E6/uL. The HEMATOCRIT [3] was 32.9%, the HEMOGLOBIN [3] was 13.47 G/DL and the “LEUKOCYTE COUNT” value [3] was 11.87 x10E3/uL. For the same compound, the LYMPHOCYTE [3] was 92%, the “MEAN CORPUSCULAR HEMOGLOBIN” value [3] was 26.17 pg and the “MEAN CORPUSCULAR HEMOGLOBIN CONCENTRATION” value [3] was 40.97 G/DL. For the same compound, the “MEAN CORPUSCULAR VOLUME” value [3] was 63.87 fL, the MONOCYTE [3] was 0% and the NEUTROPHIL [3] was 8%. The “NUCLEATED RED BLOOD CELLS” value [3] was 0 /100WBC, the “PLATELET COUNT” value [3] was 1222.67 x10E3/uL and the “ALANINE AMINOTRANSFERASE” value [3] was 51.33 u/L. The ALBUMIN [3] was 4.07 G/DL, the “ALKALINE PHOSPHATASE” value [3] was 403 u/L and the “ASPARTATE AMINOTRANSFERASE” value [3] was 87.67 u/L. For the same compound, the “BLOOD UREA NITROGEN” value [3] was 15 mg/dL, the “CARBON DIOXIDE” value [3] was 25 mmol/L and the CHLORIDE [3] was 102.33 MEQ/L. For the same compound, the CHOLESTEROL [3] was 61 mg/dL, the “CREATINE PHOSPHOKINASE” value [3] was 556.33 u/L and the CREATININE [3] was 0.2 mg/dL. The GLUCOSE [3] was 204.67 mg/dL, the “LACTATE DEHYDROGENASE” value [3] was 170.67 u/L and the LIPASE [3] was 10 u/L. The PHOSPHORUS [3] was 13.13 mg/dL, the POTASSIUM [3] was 5.4 MEQ/L and the SODIUM [3] was 143.3 MEQ/L. For the same compound, the “TOTAL BILIRUBIN” value [3] was 0.1 mg/dL, the “TOTAL PROTEIN” value [3] was 5.5 G/DL and the “URIC ACID” value [3] was 1.8 mg/dL.
